The target in one test is T1, ERK-1 kinase (Homo sapiens, UniProt P27361).
T1 construct: purchased Invitrogen PV3311
As to the kind of experiment: Inhibition of ERK-1 kinase activity (LANCE Ultra TR-FRET). It is filed as biochemical. Conditions: ERK1 enzyme 0.4 nM, ATP 38.15 μM. Summed up: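 Reactions contained 0.4 nM ERK1, 0.5 μM Ulight-MBP peptide and 38.15 μM ATP in pH 7.4 Hepes/MgCl2 buffer with 4% DMSO and ran 60 minutes at room temperature. Detection used Eu-anti-p-MBP with a 665/615 nm TR-FRET ratio, normalised to DMSO and no-enzyme controls. Final concentrations were 100 nM to 0.005 nM, and IC50 came from a 4-parameter fit.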
In general terms: TR-FRET usually uses a lanthanide donor and a delayed reading to cut background.

Test [1] has as its system human pancreatic cancer cell MiaPaca 2 xenograft (CDX) model. In words: Tumor inhibition experiment in MiaPaca 2 xenograft model. It is filed as in vivo, BALB/c nude mice. Here is the method: BALB/c nude mice were used as test animals. In vivo pharmacodynamic test was carried out in human pancreatic cancer cell MiaPaca 2 xenograft (CDX) model to evaluate the antitumor effect of the test compound.
MiaPaca 2 cells were obtained from the cell bank. After recovery, the cells were added to a DMEM medium (containing 10% FBS, 1% Glu and 1% P/S), and incubated in the CO2 incubator (the incubator temperature was 37° C., and the CO2 concentration was 5%). The cells were subjected to passage after spreading 80-90% of the bottom of the culture flask. After passage, the cells were incubated in the CO2 incubator. This process was repeated until the number of cells met the required by in vivo pharmacological inoculation. Cells in log phase were collected, and counted by the automatic cell counter. The cells were re-suspended with PBS and Matrigel (1:1 by volume) based on the counting results to obtain a cell suspension (cell density: […]), which was placed in an ice box.
Female BALB/c nude mice (6-8 weeks old, body weight: 18-22 grams) were used as test animals. The mice were maintained in individually ventilated cages (5 mice per cage) in a special pathogen-free environment. All cages, padding and water were disinfected before use. All animals had free access to standard certified commercial laboratory diets. The nude mice were labeled with disposable ear tags before the experiment. The skin of the inoculated area was sterilized with 75% medical alcohol before inoculation. Each mouse was subcutaneously inoculated with 0.1 ml (containing 8*10^6 cells) of MiaPaca 2 tumor cells on the right back. Administration was started when the average tumor volume reached 100-200 mm^3. The test compound was administrated intragastrically daily. The tumor volume (mm^3) was measured with vernier caliper twice a week. Calculation formula: V=0.5*D*d*d, wherein D and d refer to the major and minor diameter of the tumor, respectively. The anti-tumor efficacy was determined by dividing the average tumor increase volume of compound-treated animals by the average tumor increase volume of untreated animals. Calculation formula of tumor inhibition rate: TGI (%)=1−[(Vt−V0)administration group/(Vt−V0)solvent control group]*100%. All animals were euthanized after the experiment.

The target in another test is T2, ERK-2 kinase (Homo sapiens, UniProt P28482).
T2 construct: purchased Invitrogen PV3313
In words: Inhibition of ERK-2 kinase activity (LANCE Ultra TR-FRET). The format is biochemical. Conditions: ERK-2 enzyme 0.08 nM, ATP 38.15 μM. Summed up: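 Recombinant ERK-2 (0.08 nM) with ULight-MBP peptide (0.5 μM) and ATP (38.15 μM) in Hepes pH 7.4 buffer, compound 100 nM to 0.005 nM final, 4% DMSO, 60 min at room temperature. Eu-anti-p-MBP TR-FRET (665/615 nm) read after EDTA stop; % inhibition versus DMSO and no-enzyme controls fitted 4-parameter for Abs_IC50.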

[2] abbreviates: 50 mg/kg QD × 16 d, intragastric, Day 16.
Setting [3] is: 50 mg/kg BID × 3 w, intragastric.
The mark [4] stands for this setting: 100 mg/kg QD × 3 w, intragastric.

We go through two compounds from patent publication US20200247815A1, “PYRAZOLYL-CONTAINING TRICYCLIC DERIVATIVE, PREPARATION METHOD THEREFOR AND USE THEREOF” (Jiangsu Hansoh Pharmaceutical Group Co., Ltd., priority 2017, published 2020).

T1 sequence (P27361 whole entry): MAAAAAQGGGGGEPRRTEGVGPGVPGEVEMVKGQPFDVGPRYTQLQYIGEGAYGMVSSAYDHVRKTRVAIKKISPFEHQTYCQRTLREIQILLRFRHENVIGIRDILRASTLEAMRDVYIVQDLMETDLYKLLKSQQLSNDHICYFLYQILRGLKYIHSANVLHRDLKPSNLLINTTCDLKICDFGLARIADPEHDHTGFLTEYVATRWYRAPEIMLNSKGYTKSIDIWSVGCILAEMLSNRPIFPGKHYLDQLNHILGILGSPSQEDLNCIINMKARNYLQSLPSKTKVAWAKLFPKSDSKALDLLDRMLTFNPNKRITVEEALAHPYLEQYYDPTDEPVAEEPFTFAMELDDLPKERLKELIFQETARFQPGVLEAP
T2 sequence (P28482 whole entry): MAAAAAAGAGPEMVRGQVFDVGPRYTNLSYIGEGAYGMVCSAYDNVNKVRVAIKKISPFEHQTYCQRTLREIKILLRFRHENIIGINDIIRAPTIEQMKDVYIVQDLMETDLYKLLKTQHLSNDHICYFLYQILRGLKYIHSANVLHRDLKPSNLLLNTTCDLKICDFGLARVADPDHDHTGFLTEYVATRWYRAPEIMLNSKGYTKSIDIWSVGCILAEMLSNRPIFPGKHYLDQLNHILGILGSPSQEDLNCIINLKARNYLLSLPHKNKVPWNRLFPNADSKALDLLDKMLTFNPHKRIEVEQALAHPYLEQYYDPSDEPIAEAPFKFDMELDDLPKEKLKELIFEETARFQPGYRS

What is called IC50 is the concentration needed to halve the response being measured. In the case of `C[C@@H](NC(=O)c1cc2cc3c(-c4ccncc4)n[nH]c3cc2[nH]1)c1ccccc1` [Example 1, (R)—N-(1-phenylethyl)-3-(pyridin-4-yl)-1,7-dihydropyrrolo[3,2-f]indazole-6-carboxamide], the concentration for half-maximal inhibition (IC50) at ERK-1 kinase stood at 0.29 nM. For the same compound, in test [1] (50 mg/kg QD × 16 d, intragastric), the “Tumor volume (Mean ± SD) Day 0” value worked out at 154 ± 29 mm^3. In addition, in test [1] (setting [2]), the “TGI Day 16” value turned out to be 86.63%, the “Tumor volume (Mean ± SD) Day 16” value turned out to be 214 ± 97 mm^3 and the “ΔT/ΔC Day 16” value was 13.37%. The “Inhibition of growth of xenograft” value in test [1] (50 mg/kg QD, continuous oral administration for 16 days) is “significantly inhibit the growth”. Besides, at ERK-2 kinase, the IC50 was 0.17 nM.

Consider `C[C@@H](NC(=O)c1nc2cc3c(-c4ccncc4)n[nH]c3cc2[nH]1)c1ccccc1` [Example 2, (R)—N-(1-phenylethyl)-3-(pyridin-4-yl)-1,7-dihydroimidazo[4,5-f]indazole-6-carboxamide], for which, on ERK-1 kinase, the IC50 is 0.42 nM. Also, in test [1] (setting [3]), the “Tumor volume (Mean ± SD) Day 0” value was determined as 156 ± 27 mm^3, the “TGI Day 21” value is on record as 85.07%, the “Tumor volume (Mean ± SD) Day 21” value amounted to 253 ± 32 mm^3 and the “ΔT/ΔC Day 21” value is 14.93%. Besides, the “Inhibition of growth of xenograft” value in test [1] (50 mg/kg BID, continuous oral administration for 21 days) is reported as “significantly inhibit the growth”. Besides, in test [1] (setting [4]), the “Tumor volume (Mean ± SD) Day 0” value was 156 ± 24 mm^3, the “TGI Day 21” value came out at 91.14%, the “Tumor volume (Mean ± SD) Day 21” value was determined as 214 ± 104 mm^3 and the “ΔT/ΔC Day 21” value was determined as 8.86%. For the same compound, the “Inhibition of growth of xenograft” value in test [1] (100 mg/kg QD, continuous oral administration for 21 days) is listed as “significantly inhibit the growth”. Further, the 50% inhibitory concentration (IC50) on ERK-2 kinase was determined as 0.19 nM.
